Reference: US11226337B2, “Chemoproteomic profiling of protein electrophilic and oxidative post-translational modifications” (Zenagem, LLC, priority 2017, dated 2022)

What was measured:
[1] = target: T1, MAN2B1 Lysosomal alphamannosidase (O00754) (Homo sapiens, UniProt O00754); test: SILAC RP-ABPP; type: cell-based; details: SILAC H/L, MDA-MB-231
T1 construct: shared by both the endogenous and recombinant forms of these proteins; endogenous in cells; host or cells: HEK293T and MDA-MB-231
T1 sequence (O00754 50-1011): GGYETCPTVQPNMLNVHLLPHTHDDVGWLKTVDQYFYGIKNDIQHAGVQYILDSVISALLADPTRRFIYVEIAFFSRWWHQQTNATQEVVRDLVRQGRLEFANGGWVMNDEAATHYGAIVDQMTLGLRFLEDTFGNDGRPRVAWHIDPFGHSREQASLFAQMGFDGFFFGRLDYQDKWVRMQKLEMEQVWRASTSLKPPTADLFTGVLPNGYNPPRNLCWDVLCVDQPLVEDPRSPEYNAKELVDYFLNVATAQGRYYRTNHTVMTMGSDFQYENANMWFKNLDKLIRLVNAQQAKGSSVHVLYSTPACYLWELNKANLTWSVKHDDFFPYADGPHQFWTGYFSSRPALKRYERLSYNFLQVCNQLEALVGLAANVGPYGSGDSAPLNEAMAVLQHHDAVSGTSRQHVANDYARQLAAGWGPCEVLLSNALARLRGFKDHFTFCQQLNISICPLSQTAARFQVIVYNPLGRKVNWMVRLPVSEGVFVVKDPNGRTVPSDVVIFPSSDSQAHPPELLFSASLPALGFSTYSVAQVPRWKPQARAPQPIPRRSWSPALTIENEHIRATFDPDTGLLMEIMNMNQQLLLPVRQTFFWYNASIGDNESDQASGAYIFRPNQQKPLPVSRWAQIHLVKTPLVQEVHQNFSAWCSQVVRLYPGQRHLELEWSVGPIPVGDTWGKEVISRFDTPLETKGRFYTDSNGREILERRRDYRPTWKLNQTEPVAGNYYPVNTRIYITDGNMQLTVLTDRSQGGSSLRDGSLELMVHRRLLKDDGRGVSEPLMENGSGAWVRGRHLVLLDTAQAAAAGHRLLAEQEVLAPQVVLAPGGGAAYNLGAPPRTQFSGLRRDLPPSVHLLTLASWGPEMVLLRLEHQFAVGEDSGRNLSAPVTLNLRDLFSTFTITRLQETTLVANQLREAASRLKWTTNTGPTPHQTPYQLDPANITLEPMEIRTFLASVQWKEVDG
Method: (§1) For MS-based experiments, labelling was performed in a similar manner as described above in Example 2, maintaining the same concentrations of probes. Modifications to this protocol included using isotopically ‘light’ and ‘heavy’ SILAC cells that were also grown to near complete confluence prior to treatment. Isotopically light cells were treated with the non-clickable hydrazine probe (at the same concentration as the probe in ‘enrichment’ experiments) or the probe in the presence of 10-fold excess non-clickable hydrazine probe as a competitor (in ‘competition’ experiments). Isotopically heavy cells were treated with the probe for both types of experiments. These treatments were performed in non-SILAC media. Following treatments, cells were washed with cold PBS to remove the probe-containing media, harvested by scraping, collected by centrifugation (1,400 g, 3 min, 4° C.), washed again by resuspension in cold PBS and frozen as pellets at −80° C. until use.
(§2) The fractionated equimolar mixture of heavy and light soluble proteomes (1-1.5 mg) was diluted to 1 mL in PBS. Click reactions were scaled accordingly (except for biotin-azide) to maintain final concentrations of 0.1 mM TBTA, 1 mM CuSO4, 100 μM biotin-azide (10 mM in DMSO) and 1 mM TCEP. The mixture was vortexed and placed on a rotator at ambient temperature for 1 hour. Sequential addition of and mixture with pre-chilled methanol (MeOH, 2 mL), chloroform (CHCl3, 0.5 mL) and PBS (1 mL) on ice quenched the reaction. The precipitated proteome was centrifuged (5,000 g, 10 min, 4° C.) to fractionate the protein interphase from the organic and aqueous solvent layers. The protein pellet was washed with cold 1:1 MeOH:CHCl3 (3×1 mL), mildly sonicated in cold 4:1 MeOH:CHCl3 (2.5 mL) and pelleted once more by centrifugation (5,000 g, 10 min, 4° C.) to ensure click reagents were efficiently removed.
(§3) Heavy and light parent ion chromatograms associated with successfully identified peptides were extracted and compared using CIMAGE software as previously described^69. At least one ion of a co-eluting heavy-light pair must be accurately identified from a fragmentation event that occurred within the retention time window (±10 min) of parent ion elution. To ensure that the correct pair of peaks is quantified, chromatograms are extracted within a 10 ppm error tolerance of the predicted m/z, the signal-to-noise ratio must be >2.5 and the ‘co-elution correlation score’ and ‘envelope correlation score’ must have R^2 values ≥0.8. In addition, peptides detected as ‘singletons,’ where only the heavy ion of a peptide pair was identified, but for which passed all other filtering parameters, are given a default assigned ratio of ‘20,’ which is defined as any measured ratio that is ≥20.
(§4) To further eliminate false positives and any stochastic variability in the data, protein ratios were then determined by the median peptide ratio derived from three or more unique quantified peptides. Protein ratios that complied with these criteria from a single experiment were then averaged with ratios acquired from ≥3 replicates to provide final values for each type of experiment in both cell lines with both probes. […] Most importantly, there are no robustly measured ratios for proteins identified as probe 1 targets that had measured ratios of ˜1 with probe 2. Probe targets in HEK293T and MDA-MB-231 cells represent data combined from ≥3 independent biological replicates with each cell type performed with several independent batches of synthesized probes over a period of almost two years. […]

[2] = target: T2, GNS Nacetylglucosamine6sulfatase (P15586) (Homo sapiens, UniProt P15586); test: SILAC RP-ABPP; type: cell-based; details: SILAC H/L, MDA-MB-231
T2 construct: In Situ Labelling of Cells with Hydrazine Probes for MS Experiments; endogenous in cells
T2 sequence (P15586 37-552): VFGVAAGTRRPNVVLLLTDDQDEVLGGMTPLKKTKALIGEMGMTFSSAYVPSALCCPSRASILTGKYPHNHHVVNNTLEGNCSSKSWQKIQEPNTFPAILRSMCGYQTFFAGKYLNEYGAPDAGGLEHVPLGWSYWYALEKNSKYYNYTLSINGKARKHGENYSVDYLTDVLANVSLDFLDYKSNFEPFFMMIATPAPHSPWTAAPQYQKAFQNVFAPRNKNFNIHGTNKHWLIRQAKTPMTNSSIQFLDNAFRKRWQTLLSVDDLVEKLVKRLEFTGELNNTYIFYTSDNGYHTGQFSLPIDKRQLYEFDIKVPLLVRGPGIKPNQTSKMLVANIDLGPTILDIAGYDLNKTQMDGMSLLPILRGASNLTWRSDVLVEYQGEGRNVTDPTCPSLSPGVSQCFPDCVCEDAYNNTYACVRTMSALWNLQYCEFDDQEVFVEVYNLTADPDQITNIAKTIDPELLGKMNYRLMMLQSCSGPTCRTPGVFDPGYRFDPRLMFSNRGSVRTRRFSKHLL
Method: as §1, §2, §3, §4

## C#CCNN.Cl [probe 1, prop-2-yn-1-ylhydrazine hydrochloride]
[1]; probe 1 3 mM 0.5 h vs probe 3
  enrichment ratioavg: 20
[1]; probe 1 vs probe 1+10x probe 3
  competition ratioavg: 8
[2]; probe 1 3 mM 0.5 h vs probe 3
  enrichment ratioavg: 10
[2]; probe 1 vs probe 1+10x probe 3
  competition ratioavg: 3

## C#CCCNC(=O)c1ccc(NN)cc1.Cl [probe 2, N-(but-3-yn-1-yl)-4-hydrazinylbenzamide hydrochloride]
[1]; probe 2 1 mM 0.5 h vs probe 4
  enrichment ratioavg: 20
[1]; probe 2 vs probe 2+10x probe 4
  competition ratioavg: 4
[2]; probe 2 1 mM 0.5 h vs probe 4
  enrichment ratioavg: 7
[2]; probe 2 vs probe 2+10x probe 4
  competition ratioavg: 3
